From ChEMBL document CHEMBL5257089, “Gamabufotalin Induces Apoptosis and Cytoprotective Autophagy through the mTOR Signaling Pathway in Hepatocellular Carcinoma” (J Nat Prod, 2023)
Activity calls are given as the source filed them. The rule behind the calls is not given here.

Tests used:
Huh-7 [1] = experiment: Induction of autophagic flux in human Huh-7 cells harbouring mCherry-egfp-LC3 assessed as reduction in number of yellow puncta ratio at 10 nM incubated for 15 mins in presence of gamabufotalin by laser scanning confocal microscopic analysis; format: functional, cell-based
Hep 3B2 [2] = experiment: Induction of autophagy in human Hep3B cells assessed as rescue of ULK1 phosphorylation level at upto 10 nM incubated for 48 hrs in presence of gamabufotalin by immunoblot method; format: functional, cell-based
Hep 3B2 [3] = experiment: Induction of apoptosis in human Hep3B cells assessed as early apoptotic cells at 10 nM incubated for 48 hrs by Annexin V-FITC/PI staining based flow cytometry method (reference value: 1.3%); format: functional
Hep 3B2 [4] = experiment: Induction of autophagic flux in human Hep3B cells harbouring mCherry-egfp-LC3 assessed as reduction in number of red puncta ratio at 10 nM incubated for 15 mins in presence of gamabufotalin by laser scanning confocal microscopic analysis; format: functional, cell-based
Huh-7 [5] = experiment: Induction of apoptosis in human Huh-7 cells assessed as increase in PARP level at 10 nM incubated for 48 hrs in presence of gamabufotalin by immunoblot analysis; format: functional, cell-based
Hep 3B2 [6] = experiment: Induction of autophagic flux in human Hep3B cells assessed as increase in number of autophagic vesicles at 10 nM by transmission electron microscopic analysis; format: functional, cell-based
Hep 3B2 [7] = experiment: Induction of apoptosis in human Hep3B cells assessed as necrotic cells at 10 nM incubated for 48 hrs by Annexin V-FITC/PI staining based flow cytometry method (reference value: 1.2%); format: functional
Hep 3B2 [8] = experiment: Induction of apoptosis in human Hep3B cells assessed as increase in bax level at 10 nM incubated for 48 hrs in presence of gamabufotalin by immunoblot analysis; format: functional, cell-based
Hep 3B2 [9] = experiment: Induction of apoptosis in human Hep3B cells assessed as increase in PARP level at 10 nM incubated for 48 hrs in presence of gamabufotalin by immunoblot analysis; format: functional, cell-based
Huh-7 [10] = experiment: Induction of autophagic flux in human Huh-7 cells assessed as rescue of p62 at 10 uM incubated for 48 hrs in presence of gamabufotalin by Western blot analysis; format: functional, cell-based
Hep 3B2 [11] = experiment: Induction of apoptosis in human Hep3B cells assessed as early apoptotic cells at 20 nM incubated for 48 hrs by Annexin V-FITC/PI staining based flow cytometry method (reference value: 3.9%); format: functional
Huh-7 [12] = experiment: Induction of apoptosis in human Huh-7 cells assessed as late apoptotic cells at 25 nM incubated for 48 hrs by Annexin V-FITC/PI staining based flow cytometry method (reference value: 3.8%); format: functional
Hep 3B2 [13] = experiment: Induction of apoptosis in human Hep3B cells assessed as increase in cleaved caspase-3 expression at upto 25 nM incubated for 48 hrs by Western blot analysis; format: functional, cell-based
Huh-7 [14] = experiment: Induction of apoptosis in human Huh-7 cells assessed as early apoptotic cells at 15 nM incubated for 48 hrs by Annexin V-FITC/PI staining based flow cytometry method (reference value: 1.7%); format: functional
[15] = Toxicity in mouse assessed as effect on serum CERA level at 5 mg/kg,ip administered every second day for 3 weeks by H and E staining based microscopic method; format: organism-based; settings: in vivo, 504 h
Hep 3B2 [16] = experiment: Induction of autophagy in human Hep3B cells assessed as restoration of mTOR phosphorylation expression at 25 uM incubated for 48 hrs in presence of 4,6-dimorpholino-N-(4-nitrophenyl)-1,3,5-triazin-2-amine by immunoblot analysis; format: functional, cell-based
Hep 3B2 [17] = experiment: Induction of apoptosis in human Hep3B cells assessed as necrotic cells at 15 nM incubated for 48 hrs by Annexin V-FITC/PI staining based flow cytometry method (reference value: 0.2%); format: functional
Huh-7 [18] = experiment: Induction of autophagic flux in human Huh-7 cells assessed as rescue of LC3-I accumulation at 25 uM incubated for 48 hrs in presence of chloroquine by Western blot analysis; format: functional, cell-based
Hep 3B2 [19] = experiment: Induction of autophagic flux in human Hep3B cells harbouring mCherry-egfp-LC3 assessed as reduction in number of yellow puncta ratio at 25 nM incubated for 15 mins in presence of chloroquine by laser scanning confocal microscopic analysis; format: functional, cell-based
Hep 3B2 [20] = experiment: Induction of apoptosis in human Hep3B cells assessed as increase in PARP level at 25 nM incubated for 48 hrs in presence of chloroquine by immunoblot analysis; format: functional, cell-based
Hep 3B2 [21] = experiment: Induction of apoptosis in human Hep3B cells assessed as reduction in Bcl-2 level at 25 nM incubated for 48 hrs in presence of chloroquine by immunoblot analysis; format: functional, cell-based
Hep 3B2 [22] = experiment: Induction of apoptosis in human Hep3B cells assessed as condensed nuclei at […] incubated for 48 hrs by Hoechst33258 staining based fluorescence microscopy; format: functional, cell-based
Hep 3B2 [23] = experiment: Induction of autophagic flux in human Hep3B cells assessed as increase in intracellular vesicles at 25 nM incubated for 48 hrs by transmission electron microscopic analysis; format: functional, cell-based
Huh-7 [24] = experiment: Induction of apoptosis in human Huh-7 cells assessed as necrotic cells at 15 nM incubated for 48 hrs by Annexin V-FITC/PI staining based flow cytometry method (reference value: 95.4%); format: functional
Huh-7 [25] = experiment: Induction of autophagy in human Huh-7 cells harbouring mCherry-egfp-LC3 assessed as reduction in red puncta ratio at 25 nM incubated for 15 mins in presence of 4,6-dimorpholino-N-(4-nitrophenyl)-1,3,5-triazin-2-amine by laser scanning confocal microscopic analysis; format: functional, cell-based
Hep 3B2 [26] = experiment: Induction of autophagic flux in human Hep3B cells assessed as rescue of LC3-II accumulation at 25 uM incubated for 48 hrs in presence of chloroquine by Western blot analysis; format: functional, cell-based
Hep 3B2 [27] = experiment: Induction of apoptosis in human Hep3B cells assessed as […] level at upto 25 nM incubated for 48 hrs by Western blot analysis; format: functional, cell-based
Huh-7 [28] = experiment: Induction of apoptosis in human Huh-7 cells assessed as necrotic cells at 15 nM incubated for 48 hrs by Annexin V-FITC/PI staining based flow cytometry method (reference value: 0.7%); format: functional
Hep 3B2 [29] = experiment: Induction of apoptosis in human Hep3B cells assessed as viable cells at 25 nM measured after 48 hrs in presence of Z-VAD-FMK by annexin V-FITC/Propidium iodide staining based flow cytometric analysis (reference value: 95.6%); format: functional; settings: read-out: Activity
Huh-7 [30] = experiment: Induction of apoptosis in human Huh-7 cells assessed as necrotic cells at 20 nM incubated for 48 hrs by Annexin V-FITC/PI staining based flow cytometry method (reference value: 0.7%); format: functional
Huh-7 [31] = experiment: Induction of apoptosis in human Huh-7 cells assessed as upregulation of bax level […] incubated for 48 hrs in presence of 4,6-dimorpholino-N-(4-nitrophenyl)-1,3,5-triazin-2-amine by immunoblot analysis; format: functional, cell-based
Hep 3B2 [32] = experiment: Induction of apoptosis in human Hep3B cells assessed as early apoptotic cells at 25 nM incubated for 48 hrs by Annexin V-FITC/PI staining based flow cytometry method (reference value: 3.9%); format: functional
Hep 3B2 [33] = experiment: Induction of apoptosis in human Hep3B cells assessed as necrotic cells at 25 nM incubated for 48 hrs by Annexin V-FITC/PI staining based flow cytometry method (reference value: 1.2%); format: functional
Huh-7 [34] = experiment: Induction of autophagic flux in human Huh-7 cells assessed as decrease in p62 expression at upto 25 nM incubated for 48 hrs by Western blot analysis; format: functional, cell-based

CCN(CC)CCCC(C)Nc1ccnc2cc(Cl)ccc12 (centres undefined) [CHLOROQUINE]
Activity (Huh-7 [1]): Active
Activity (Hep 3B2 [2]): Active
Activity (Hep 3B2 [3]): 1.5%
Activity (Hep 3B2 [4]): Active
Activity (Huh-7 [5]): Active
Activity (Hep 3B2 [6]): Active
Activity (Hep 3B2 [7]): 0.4%
Activity (Hep 3B2 [8]): Active
Activity (Hep 3B2 [9]): Active
Activity (Huh-7 [10]): Active

C[C@]12CC[C@H](O)C[C@H]1CC[C@@H]1[C@@H]2[C@H](O)C[C@]2(C)[C@@H](c3ccc(=O)oc3)CC[C@]12O [GAMABUFOTALIN]
Activity (Hep 3B2 [11]): 7.8%
Activity (Huh-7 [12]): 7.7%
Activity (Hep 3B2 [13]): Active
Activity (Huh-7 [14]): 4%
Activity [15]: Non-Toxic
Activity (Hep 3B2 [16]): Active
Activity (Hep 3B2 [17]): 0.5%
Activity (Huh-7 [18]): Active
Activity (Hep 3B2 [19]): Active
Activity (Hep 3B2 [20]): Active
Activity (Hep 3B2 [21]): Active
Activity (Hep 3B2 [22]): Active
Activity (Hep 3B2 [23]): Active
Activity (Huh-7 [24]): 67.6%
Activity (Huh-7 [25]): Active
Activity (Hep 3B2 [26]): Active
Activity (Hep 3B2 [27]): Active
Activity (Huh-7 [28]): 4%
viability at 0.025 µM (Hep 3B2 [29]): 91.9%
Activity (Huh-7 [30]): 4.9%
Activity (Huh-7 [31]): Active
Activity (Hep 3B2 [32]): 9.3%
Activity (Hep 3B2 [33]): 0.6%
Activity (Huh-7 [34]): Active
